Patent US20090012152A1, “Use of Tetramic Acid Derivatives for Controlling Insects from the Genus of the Plane Lice (Sternorrhyncha)” (Bayer CropScience Aktiengesellschaft, priority 2005, published 2009)

Columns and labels:
Type in all cases: in vivo
Aonidiella aurantii = assay: Example 15: orange trees treated against Aonidiella aurantii; conditions: on fruits, % a.i.: Tokuthion 0.048 (once), I-9 0.0096, I-2 0.0096 (two applications)
Procedure: In three replications, 3-year-old orange trees of the cultivar “Midnight Valenzia” are treated against Aonidiella aurantii. Two applications are carried out at an interval of 72 days, using a motor-operated knapsack sprayer. Here, the active compounds Example (I-9) (240 SC) and Example (I-2) (240 SC) in a tank mix with 0.1% a.i. of rapeseed oil methyl ester (500 EW) at the stated application rate are tested against the standard Tokuthion (960 EC) at the stated amounts. applied once. The application rate is 4 l of water per tree.
Evaluation is carried out 130 and 176 days after the treatment by rating the kill on the fruits.

Saissetia oleae [1] = assay: Example 13: orange trees treated against Saissetia oleae; conditions: nymphs on leaves, g a.i./ha/m crown height: buprofezin 500, I-4 72, I-8 30
Procedure: In three replications, in each case two about 8-year-old orange trees are treated against Saissetia oleae. Here, the active compounds Example (I-4) (240 SC) and Example (I-8) (250 SC) in a tank mix with 0.2% a.i. of rapeseed oil methyl ester (500 EW) at the stated application rate are tested against the commercial standard buprofezin in a tank mix with 0.4% a.i. of Oliocin (800 EW) at the stated application rate. The application is carried out using a motor-operated knapsack sprayer. The application rate is 3000 l of water/ha. Two treatments are carried out, at an interval of 29 days.
Evaluation is carried out 24 and 44 days after the last treatment by rating the kill of the nymphs on the leaves.

Planococcus spp. = assay: Example 29: vines treated against Planococcus spp.; conditions: larvae on grapes, rate %/1: Dursban 0.096, I-4 0.0096
Procedure: In three replications, in plots of a size of 54 m^2, about 10-year-old vines of the cultivar “Napoleon” are treated against Planococcus spp. The application is carried out using a knapsack sprayer. Here, the active compound Example (I-4) (240 SC), in a tank mix with 0.1% a.i. of rapeseed oil methyl ester (500 EW), is tested against the commercial standard Dursban (480 EC), at the stated application rates. The application rate is 864 l of water/ha. Two treatments are carried out, at an interval of 19 days.
Evaluation is carried out 16 and 38 days after the second treatment by rating the kill of the larvae on the grapes.

Macrosiphum euphorbiae = assay: Example 46: head lettuce treated against Macrosiphum euphorbiae; conditions: nymphs on plants, g a.i./ha: endosulfan 1120, I-4 48
Procedure: In four replications, plots of a size of about 33 m^2 with head lettuce of the cultivar “PIC 714” are treated against Aulacorthum solani, Macrosiphum euphorbiae and Myzus persicae. The application is carried out using a tractor sprayer. Here, the active compound Example (I-4) (240 SC), in a tank mix with 0.2% a.i. of rapeseed oil methyl ester (500 EW), is tested against the commercial standard endosulfan (360 EC), at the stated application rates. The application rate is 187 l of water/ha. Two treatments are carried out, at an interval of 22 days.
Evaluation is carried out 8, 22, 30 and 40 days after the first treatment by rating the kill of the nymphs on the plants.

Myzus persicae = assay: Example 54: bell pepper plants treated against Myzus persicae; conditions: on leaves, g a.i./ha: Provado 50, I-4 48
Procedure: In four replications, plots of a size of about 8.4 m^2 with 36 11-week-old bell pepper plants of the cultivar “Casea dura ikeda” are treated against Myzus persicae. The application is carried out using a knapsack sprayer operated with pressurized air. Here, the active compound Example (I-4) (240 SC), in a tank mix with 0.2% a.i. of rapeseed oil methyl ester (500 EW), is tested against the commercial standard Provado (200 SC), at the stated application rates. The application rate is 600 l of water/ha. There are three applications, in each case at an interval of 7 d.
Evaluation is carried out 1, 7, and 14 days after the last treatment by rating the kill of the animals on the leaves.

Pseudococcus citri = assay: Example 26: citrus trees treated against Pseudococcus citri; conditions: 62 days after treatment, larvae on fruits, g a.i./ha/m crown height: Dursban 960, I-4 72
Procedure: In three replications, in plots of a size of about 20 m^2, citrus trees of the cultivar “Oro Nules” are treated against Pseudococcus citri. The application is carried out using a high-pressure sprayer. Here, the active compound Example (I-4) (240 SC), in a tank mix with 0.1% a.i. of rapeseed oil methyl ester (500 EW), is tested against the commercial standard Dursban (480 EC), at the stated application rates. The application rate is 2500 l of water/ha.
Evaluation is carried out 62 days after the treatment by rating the kill of the larvae on the fruits.

Saissetia oleae [2] = assay: Example 14: orange trees (Navelina) treated against Saissetia oleae; conditions: 120 d after treatment, kill on branches, % a.i.: Dursban 0.096, I-4 0.012, I-9 0.0054, pyriproxyfen 0.005
Procedure: In three replications, orange trees of the cultivar “Navelina” are treated against Saissetia oleae. Here, the active compounds Example (I-4) (240 SC) and Example (I-9) (240 SC) in a tank mix with 0.1% of rapeseed oil methyl ester (500 EW) at the stated application rate are tested against the commercial standards Dursban (480 EC) and pyriproxyfen (100 EC) at the stated application rate. The application is carried out using a motor-operated knapsack sprayer. The application rate is 3200 l of water/ha.
Evaluation is carried out 120 days after the treatment by rating the kill of the animals on the branches.

Rhodobium porosum = assay: Example 55: strawberry plants treated against Rhodobium porosum; conditions: nymphs on strawberry plants, g a.i./ha: Calypso 120, I-4 75
Procedure: In four replications, plots of a size of about 3 m^2 with 3-week-old strawberry plants are treated against Macrosiphum euphorbiae and Rhodobium porosum. The application is carried out using a knapsack sprayer operated with pressurized air. Here, the active compound Example (I-4) (150 OD) and the commercial standard Calypso (480 SC) are tested at the stated application rates. Here, the standard is sprayed as a tank mix with 0.03% of Motto (adjuvant). The application rate is 500 l of water/ha.
Evaluation is carried out 7 and 14 days after the second treatment by rating the kill of the nymphs on the plants.

SMILES	Kill (%) 130 d (Aonidiella aurantii; 130 d after treatment) [%]	Kill (%) 176 d (Aonidiella aurantii; 176 d after treatment) [%]	Kill (%) 24 d (Saissetia oleae [1]; 24 d after last of two treatments) [%]	Kill (%) 44 d (Saissetia oleae [1]; 44 d after last of two treatments) [%]	Kill (%) 16 d (Planococcus spp.; 16 d after second treatment) [%]	Kill (%) 38 d (Planococcus spp.; 38 d after second treatment) [%]	Kill (%) 8 d (Macrosiphum euphorbiae; 8 d after first of two treatments) [%]	Kill (%) 22 d (Macrosiphum euphorbiae; 22 d after first of two treatments) [%]	Kill (%) 30 d (Macrosiphum euphorbiae; 30 d after first of two treatments) [%]	Kill (%) 40 d (Macrosiphum euphorbiae; 40 d after first of two treatments) [%]	Kill (%) 1 d (Myzus persicae; 1 d after last of three treatments) [%]	Kill (%) 7 d (Myzus persicae; 7 d after last of three treatments) [%]	Kill (%) 14 d (Myzus persicae; 14 d after last of three treatments) [%]	Kill (%) 62 days (Pseudococcus citri) [%]	Effect (%) 120 d (Saissetia oleae [2]) [%]	Rhodobium porosum Kill (%) 7 d (Rhodobium porosum; 7 d after second treatment) [%]	Rhodobium porosum Kill (%) 14 d (Rhodobium porosum; 14 d after second treatment) [%]
CCOC(=O)OC1=C(c2cc(C)ccc2Br)C(=O)NC12CCC(OC)CC2 (centres unmarked) [Example (I-2)]	52	76															
CCOC(=O)OC1=C(c2cc(C)ccc2C)C(=O)NC12CCC(OC)CC2 (centres unmarked) [Example (I-4)]			53.5	56.1	94.4	91.9	95	100	100	96	99.1	98.5	100	99	98	97	96
